In the supplement of paper PMC9265050, “Inhibition of RNA Binding in SND1 Increases the Levels of miR-1-3p and Sensitizes Cancer Cells to Navitoclax” (Cancers, 2022) one finds drug sensitivity score data, which are given here for 41 molecules.

For the assay, the system named is SW480. Briefly: drug sensitivity score (DSS, integrated dose-response area); higher = more sensitive (stronger viability reduction); extreme values may be limits of the assay. In outline: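 The drug sensitivity score is the integrated area under a fitted non-linear dose–response model. It was derived from SW480 cells with doxycycline-inducible control or SND1-targeting shRNA, induced with 0.1 µg/mL doxycycline for 7 days and plated at 1000 cells per well on 384-well plates of 525 commercially available small-molecule inhibitors at five concentrations. CellTiter-Glo measured viability after 72 h.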

Where [1] appears, read: shRNA: SND1 shRNA1 (SND1 silenced).
The mark [2] stands for this setting: shRNA: SND1 shRNA2 (SND1 silenced).
The mark [3] stands for this setting: shRNA: control shRNA (non-targeting).

In the case of `CN(C)c1cc2c(cc1Sc1nc3c(N)nccc3n1CCNCC(C)(C)C)OCO2` [CUDC-305], the drug sensitivity score by setting is: under setting [1], 13.3 DSS; under setting [2], 13.1 DSS; under setting [3], 14.9 DSS.
In the same order, the values of `C[C@@H]1C[C@H]2O[C@@H]2/C=C\C=C\C(=O)Cc2c(Cl)c(O)cc(O)c2C(=O)O1` [Radicicol] are 13.4 DSS, 12.1 DSS and 12.3 DSS.
As to `O=C(Nc1c[nH]nc1-c1nc2ccc(CN3CCOCC3)cc2[nH]1)NC1CC1` [AT9283], the drug sensitivity score is 3.6 DSS under setting [1], 0 DSS under setting [2] and 0.6 DSS under setting [3].
In the same order, the values of `Nc1nc(Cl)nc2c1ncn2[C@H]1C[C@H](O)[C@@H](CO)O1` [Cladribine] are 2.4 DSS, 0 DSS and 0.5 DSS.
For `OCCn1cc(-c2cnc3nnn(Cc4ccc5ncccc5c4)c3n2)cn1`, the drug sensitivity score was determined as 0 DSS under setting [1], 0 DSS under setting [2] and 0 DSS under setting [3].
On to `Cc1cccc(-c2[nH]c(CNc3ccccc3F)nc2-c2ccc3ncnn3c2)n1` [TEW-7197], for which the drug sensitivity score worked out at 0 DSS under setting [1], 0.6 DSS under setting [2] and 0.6 DSS under setting [3].
Regarding `CN(C)C[C@@H]1CCn2cc(c3ccccc32)C2=C(C(=O)NC2=O)c2cn(c3ccccc23)CCO1` [Ruboxistaurin], the drug sensitivity score worked out at 8.1 DSS under setting [1], 7.8 DSS under setting [2] and 7.4 DSS under setting [3].
On to `CON(C)C(=O)N1N=C(c2cc(F)ccc2F)S[C@@]1(CCCN)c1ccccc1` [Filanesib], for which the drug sensitivity score reads like this: under setting [1], 16.8 DSS; under setting [2], 16 DSS; under setting [3], 16.7 DSS.
The matching figures for `Nc1cc(F)ccc1NC(=O)/C=C/c1cnn(C/C=C/c2ccccc2)c1` [RGFP966]: 6.3 DSS, 6.3 DSS and 6.8 DSS.
In the same order, the values of `CN[C@@H](C)C(=O)N[C@H](C(=O)N1CCC[C@H]1c1nc(C(=O)c2ccc(F)cc2)cs1)C1CCCCC1` [LCL161] are 0.2 DSS, 0 DSS and 0.5 DSS.
The matching figures for `CCCCC/C=C/C=C1/C(=O)C=C[C@@H]1C/C=C\CCCC(=O)O` [15D-PGJ2]: 1.7 DSS, 0 DSS and 0 DSS.
Consider `CNC(=O)c1ccc2cc([C@@]3(O)CCn4cncc43)ccc2c1` [Orteronel], for which the drug sensitivity score under setting [1] is 0 DSS, the drug sensitivity score under setting [2] worked out at 0 DSS and the drug sensitivity score under setting [3] came out at 0 DSS.
For `CN1CC[C@@H](NC(=O)Nc2ccc(C#N)cc2)C[C@@H]1c1nc2ccccc2[nH]1` [Glasdegib], the drug sensitivity score worked out at 0 DSS under setting [1], 0 DSS under setting [2] and 5.6 DSS under setting [3].
With `O=C(O)CCCCC(CCSCc1ccccc1)SCc1ccccc1` (stereo unspecified) [CPI-613], the drug sensitivity score stood at 0 DSS under setting [1] and 0 DSS under setting [3].
For the molecule `Cc1cc(Nc2nc(N[C@@H](C)c3ncc(F)cn3)ncc2Cl)[nH]n1` [AZD1480], the drug sensitivity score came out at 0.6 DSS under setting [1], 0 DSS under setting [2] and 1.1 DSS under setting [3].
The matching figures for `O=C(CCCCCCC(=O)Nc1ccccc1)NO` [Vorinostat]: 7.8 DSS, 8 DSS and 9.3 DSS.
The matching figures for `CCOc1ccn(-c2ccc(F)cc2)c(=O)c1C(=O)Nc1ccc(Oc2ccnc(N)c2Cl)c(F)c1`: 1.9 DSS, 8.3 DSS and 6.5 DSS.
In the case of `O=C(CCCCCCNC(=O)c1cnc(N(c2ccccc2)c2ccccc2)nc1)NO` [Rocilinostat], the drug sensitivity score by setting is: under setting [1], 4 DSS; under setting [2], 7 DSS; under setting [3], 8.4 DSS.
As for `O=C(Nc1ccc(-c2ccnc(Nc3ccc(N4CCOCC4)cc3)n2)cc1)C1CCCN1` (stereo unspecified) [XL019], the drug sensitivity score under setting [1] is 0.1 DSS and the drug sensitivity score under setting [3] was 1.7 DSS.
`CC[C@@H]1C(=O)N(C)c2cnc(Nc3ccc(C(=O)NC4CCN(C)CC4)cc3OC)nc2N1C1CCCC1` [BI 2536] came in with a drug sensitivity score under setting [1] of 16.8 DSS, a drug sensitivity score under setting [2] of 18.5 DSS and a drug sensitivity score under setting [3] of 19.9 DSS.
In the same order, the values of `CNC(=O)c1nn(C)c2c1C(C)(C)Cc1cnc(Nc3ccc(N4CCN(C)CC4)cc3)nc1-2` [Milciclib] are 11.4 DSS, 10.9 DSS and 9.2 DSS.
As to `Cc1c(N)nc([C@H](CC(N)=O)NC[C@H](N)C(N)=O)nc1C(=O)N[C@H](C(=O)N[C@H](C)[C@@H](O)[C@H](C)C(=O)N[C@H](C(=O)NCCc1nc(-c2nc(C(=O)NCCC[S+](C)C)cs2)cs1)[C@@H](C)O)[C@@H](OC1OC(CO)C(O)C(O)C1OC1OC(CO)C(O)C(OC(N)=O)C1O)c1cnc[nH]1` (stereo partly specified) [Bleomycin], the drug sensitivity score is 4.8 DSS under setting [1], 5.4 DSS under setting [2] and 4.2 DSS under setting [3].
The matching figures for `C=CC(=O)Nc1cc(Nc2nccc(-c3cn(C)c4ccccc34)n2)c(OC)cc1N(C)CCN(C)C` [Osimertinib]: 8.5 DSS, 3.6 DSS and 9.6 DSS.
The matching figures for `CC1(C)CNc2cc(NC(=O)c3cccnc3NCc3ccncc3)ccc21` [Motesanib]: 0 DSS, 0.4 DSS and 0 DSS.
`COc1cccc2c1C(=O)c1c(O)c3c(c(O)c1C2=O)C[C@@](O)(C(=O)CO)C[C@@H]3O[C@H]1C[C@H](N)[C@H](O)[C@H](C)O1` [Doxorubicin] returned a drug sensitivity score under setting [1] of 4.5 DSS, a drug sensitivity score under setting [2] of 4.1 DSS and a drug sensitivity score under setting [3] of 4.1 DSS.
As for `CCc1cc2c(cc1N1CCC(N3CCOCC3)CC1)C(C)(C)c1[nH]c3cc(C#N)ccc3c1C2=O` [Alectinib], the drug sensitivity score was 0 DSS under setting [1], 0 DSS under setting [2] and 0 DSS under setting [3].
Turning to `CCNC(=O)CCC/C=C\C[C@@H]1[C@@H](/C=C/[C@@H](O)CCc2ccccc2)[C@H](O)C[C@@H]1O` [Bimatoprost], the drug sensitivity score came out at 0 DSS under setting [1], 0 DSS under setting [2] and 0 DSS under setting [3].
Take `CCn1nnc2c(N3CCOCC3)nc(-c3ccc(NC(=O)Nc4ccc(C(=O)N5CCN(C)CC5)cc4)cc3)nc21` [PKI-402]: the drug sensitivity score worked out at 6 DSS under setting [1], 6.6 DSS under setting [2] and 8.2 DSS under setting [3].
The matching figures for `FC(F)c1nc2ccccc2n1-c1nc(N2CCOCC2)nc(N2CCOCC2)n1` [ZSTK474]: 7.3 DSS, 5.1 DSS and 4 DSS.
Consider `CC(=O)Nc1cccc(-n2c(=O)n(C3CC3)c(=O)c3c(Nc4ccc(I)cc4F)n(C)c(=O)c(C)c32)c1` [Trametinib], for which the drug sensitivity score is, setting by setting: under setting [1], 19.3 DSS; under setting [2], 12.7 DSS; under setting [3], 8.1 DSS.
The matching figures for `NC(=O)c1cccc2cn(-c3ccc([C@@H]4CCCNC4)cc3)nc12` [Niraparib]: 3.3 DSS, 1.1 DSS and 4.9 DSS.
`CN(C)C(=O)c1ccc(S(=O)(=O)c2ccc(NC(=O)[C@@](C)(O)C(F)(F)F)c(Cl)c2)cc1` [AZD7545] came in with a drug sensitivity score under setting [1] of 0 DSS, a drug sensitivity score under setting [2] of 2.4 DSS and a drug sensitivity score under setting [3] of 0 DSS.
As for `O=c1[nH]c(C2CCCN2)nc2c1oc1ccc(Cl)cc12` (stereo unspecified), the drug sensitivity score was found to be 1.5 DSS under setting [1], 0 DSS under setting [2] and 8.1 DSS under setting [3].
In the same order, the values of `NC[C@@](O)(c1ccc(Cl)cc1)c1ccc(-c2cn[nH]c2)cc1` are 8 DSS, 4.7 DSS and 10.2 DSS.
The matching figures for `C[C@H]1Oc2cc(cnc2N)-c2c(nn(C)c2C#N)CN(C)C(=O)c2ccc(F)cc21`: 0.2 DSS, 0.4 DSS and 1.9 DSS.
The matching figures for `Nc1nc(Cl)nc2c1ncn2[C@@H]1O[C@H](CO)[C@@H](O)[C@@H]1F` [Clofarabine]: 8.4 DSS, 0.7 DSS and 6.5 DSS.
As for `NS(=O)(=O)NCCNc1nonc1/C(=N/O)Nc1ccc(F)c(Br)c1` [Epacadostat], the drug sensitivity score by setting is: under setting [1], 0 DSS; under setting [2], 1.5 DSS; under setting [3], 0.1 DSS.
For `CCn1c(C(=O)N(C2CC2)C2CC2)cc2c3c(ncn3C)c(Nc3cc(C)n(C)n3)nc21`, the drug sensitivity score runs as follows: under setting [1], 0 DSS; under setting [2], 0 DSS; under setting [3], 0 DSS.
For the molecule `C=CC(=O)Nc1cccc(Nc2nc(Nc3ccc(N4CCN(C(C)=O)CC4)cc3OC)ncc2C(F)(F)F)c1` [Rociletinib], the drug sensitivity score under setting [1] was 7.2 DSS, the drug sensitivity score under setting [2] stood at 3.5 DSS and the drug sensitivity score under setting [3] stood at 7.5 DSS.
In the same order, the values of `CC(C)(C)C[C@@H]1N[C@@H](C(=O)N[C@H]2CC[C@H](O)CC2)[C@H](c2cccc(Cl)c2F)[C@]12C(=O)Nc1cc(Cl)ccc12` are 1.3 DSS, 1.9 DSS and 3.3 DSS.
For `CC(C)(C)c1cnc(CSc2cnc(NC(=O)C3CCNCC3)s2)o1` [SNS-032], the drug sensitivity score worked out at 18.1 DSS under setting [1], 15 DSS under setting [2] and 16.5 DSS under setting [3].
